A short description of data set [1]: Fluorescence quantum yield. The following applies: quenched substrates versus free fluorophores.
From the text: We determined the absorption spectrum of the DNP group and the emission spectrum of the ACC fluorophore in four different assay buffers. […] To determine whether this spectral overlap is sufficient for ACC fluorophore quenching, we synthesized ACC-GDEVD-OH, a caspase substrate cleavage product, and compared its fluorescence with that of the full-length substrate ACC-GDEVD*GVK(DNP)D at various concentrations (Fig. 3).
For data set [2], the system named is Human neutrophil elastase (HNE). Kind of data set: neutrophil elastase in 0.1 M HEPES and 0.5 M NaCl at pH 7.5. The following applies: 37 °C, up to 30 min.
The test system of data set [3] is caspase-3. The data set is described as follows: caspase-3 in 20 mM Pipes, 0.1 M NaCl, 1 mM EDTA, 10 mM DTT, 10% (w/v) sucrose, pH 7.2 to 7.4. The conditions noted are these: human, 37 °C, up to 30 min.
Data set [4] relates to caspase-7. The data set is described as follows: caspase-7 in 20 mM Pipes, 0.1 M NaCl, 1 mM EDTA, 10 mM DTT, 10% (w/v) sucrose, pH 7.2 to 7.4. The conditions noted are these: human, 37 °C, up to 30 min.
Data set [5] relates to caspase-8. The data set is described as follows: caspase-8 in caspase buffer supplemented with 1 M sodium citrate. The conditions noted are these: human, 37 °C, up to 30 min.
Data set [6] concerns caspase-7. The data set is described as follows: caspase-7 in caspase buffer, IQF library screening and kinetics. The conditions noted are these: human, 37 °C, up to 30 min.
Data set [7] deals with caspase-3. Kind of data set: caspase-3 in caspase buffer, IQF library screening and kinetics. The conditions noted are these: human, 37 °C, up to 30 min.
For data set [8], the system named is caspase-6. Kind of data set: caspase-6 in caspase buffer, IQF library screening. The following applies: human, 37 °C, up to 30 min.
Data set [9] relates to Trypsin. The data set is described as follows: trypsin in 0.05 M Tris, 0.15 M NaCl, 0.01% Triton X100, pH 7.6. The conditions noted are these: 37 °C, up to 30 min.
Data set [10] has as its system MMP9. Kind of data set: MMP9 in 0.1 M Tris-HCl, 0.1 M NaCl, 10 mM CaCl2, pH 7.5. The following applies: 37 °C, up to 30 min.
The subject of data set [11] is MMP2. Kind of data set: MMP2 in 0.1 M Tris-HCl, 0.1 M NaCl, 10 mM CaCl2, pH 7.5. The following applies: 37 °C, up to 30 min.
Data set [12] concerns legumain. Kind of data set: legumain in 40 mM citric acid, 1 mM EDTA, 120 mM Na2HPO4, 10 mM DTT, pH 5.8. The conditions noted are these: human, 37 °C, up to 30 min.
For data set [13], the target named is T1, caspase-8 (Homo sapiens, UniProt Q14790).
T1 construct: made in house
Kind of data set: IQF substrate hydrolysis kinetics with caspase-8. The conditions noted are these: MCA/Lys(DNP) substrate; caspase-8 50 nM; substrate 4-80 μM; Pipes buffer pH 7.2-7.4 with 1 M sodium citrate; 37 °C; ex 325/em 420 nm; mean of at least three, SD <10%. The data set is classed as biochemical. On the procedure:
(§1) All kinetic measurements were performed using a Spectra Max Gemini XPS spectrofluorimeter (Molecular Devices) at 37 °C. For the substrates with the new donor acceptor pair, ACC/DNP, the excitation wavelength was 355 nm, and the emission wavelength was 460 nm; for MCA/DNP, the corresponding values were 325 and 420 nm, respectively. The substrate concentrations were varied, and the enzyme concentration was kept constant in each assay; the total reaction volume was 100 μl. Measurements were conducted for 30 min, and only the linear part of the progress curve was used to determine the reaction velocity. The measurements were repeated, and the data presented are the average of at least three measurements. The catalytic parameters kcat and KM were established using GraphPad Prism software to directly fit the initial velocities and initial substrate concentrations to the Michaelis-Menten equation using non-linear regression analysis.
(§2) Caspase assays were performed in a buffer containing 20 mM Pipes, 0.1 M NaCl, 1 mM EDTA, 10 mM DTT, and 10% (w/v) sucrose at pH 7.2 to 7.4[61]. The buffer used for caspase-8, caspase-9 and caspase-10 was supplemented with 1 M sodium citrate. Each caspase was incubated with assay buffer for 30 min at 37 °C before the substrates were added. For caspase-3, the concentration of substrates containing ACC or MCA on the measurement plate ranged from 1 to 50 μM, and the enzyme concentration ranged from 1 to 3 nM. For caspase-7, the concentration of substrates containing ACC or MCA on the measurement plate ranged from 1 to 50 μM, and the enzyme concentration ranged from 10 to 30 nM. For caspase-8, the concentration of a substrates containing ACC or MCA on the measurement plate ranged from 4 to 80 μM, and the enzyme concentration ranged from 20 to 50 nM.
(§3) To obtain further insight into the caspase P1-P1′ preferences, we determined the kinetic parameters for selected IQF substrates. The kinetic analysis was performed in a similar manner to that described above (Substrate Kinetics). The buffers used for caspase-8, caspase-9, and caspase-10 were supplemented with 1.0 M sodium citrate. The enzyme concentrations were as follows: caspase-3, 6 nM; caspase-7, 25 nM; caspase-8, 30–60 nM; caspase-9, 20–140 nM; and caspase-10, 25–125 nM. When testing initiator caspases, the higher enzyme concentration was used for non-optimal LEHE/X substrates.

Data set [14] has as its target T2, caspase-7 (Homo sapiens, UniProt P55210).
T2 construct: made in house
T2 sequence (P55210 24-198 limits assumed): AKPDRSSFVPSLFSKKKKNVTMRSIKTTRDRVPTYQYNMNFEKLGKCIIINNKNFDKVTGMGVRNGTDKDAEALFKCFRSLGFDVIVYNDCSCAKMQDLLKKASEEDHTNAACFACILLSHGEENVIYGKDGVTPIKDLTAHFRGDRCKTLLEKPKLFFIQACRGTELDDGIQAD
T2 sequence (P55210 207-303 limits assumed): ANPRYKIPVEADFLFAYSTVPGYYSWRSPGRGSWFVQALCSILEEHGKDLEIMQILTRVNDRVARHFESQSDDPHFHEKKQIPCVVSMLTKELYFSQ
The data set is described as follows: IQF substrate hydrolysis kinetics with caspase-7. The data set is classed as biochemical. The conditions noted are these: MCA/Lys(DNP) substrate; caspase-7 30 nM; substrate 1-50 μM; Pipes buffer pH 7.2-7.4; 37 °C; ex 325/em 420 nm; mean of at least three, SD <10%. On the procedure:
as §1, §2, §3

In data set [15] the target is T3, caspase-3 (Homo sapiens, UniProt P42574).
T3 construct: made in house
T3 sequence (P42574 29-175 limits assumed): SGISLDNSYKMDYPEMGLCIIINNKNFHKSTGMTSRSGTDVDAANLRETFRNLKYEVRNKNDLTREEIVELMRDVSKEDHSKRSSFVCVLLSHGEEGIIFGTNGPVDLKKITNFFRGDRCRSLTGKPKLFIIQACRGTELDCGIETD
T3 sequence (P42574 176-277 limits assumed): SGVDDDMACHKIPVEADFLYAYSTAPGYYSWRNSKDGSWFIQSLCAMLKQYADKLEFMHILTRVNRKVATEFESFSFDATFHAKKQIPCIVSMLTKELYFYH
The data set is described as follows: IQF substrate hydrolysis kinetics with caspase-3. Type of data set: biochemical. The following applies: MCA/Lys(DNP) substrate; caspase-3 3.0 nM; substrate 1-50 μM; Pipes buffer pH 7.2-7.4; 37 °C; ex 325/em 420 nm; mean of at least three, SD <10%. On the procedure: as §1, §2, §3

T1 sequence (Q14790 217-374 limits assumed): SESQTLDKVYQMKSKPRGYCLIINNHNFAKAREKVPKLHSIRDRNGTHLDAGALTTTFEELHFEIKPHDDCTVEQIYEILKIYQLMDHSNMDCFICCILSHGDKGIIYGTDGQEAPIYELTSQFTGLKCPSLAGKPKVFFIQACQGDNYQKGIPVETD
T1 sequence (Q14790 385-479 limits assumed): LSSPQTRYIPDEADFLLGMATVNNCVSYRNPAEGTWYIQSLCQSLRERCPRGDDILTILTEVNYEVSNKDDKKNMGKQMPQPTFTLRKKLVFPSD

On to `NC(=O)Cc1cc(=O)oc2cc(N)ccc12` [ACC, 7-amino-4-carbamoylmethylcoumarin], for which the “fluorescence quantum yield (ϕF)” value in data set [1] worked out at 0.861.
For the compound `COc1ccc2c(CC(=O)O)cc(=O)oc2c1` [MCA, 7-methoxy-coumarin-4-yl acetic acid], the “fluorescence quantum yield (ϕF)” value in data set [1] came out at 0.718.
For the compound ACC-GAEPV*SLK(dnp)L-NH2, the cleaved bond entry in [2] was “V-S”.
As for ACC-GDEVD*GVK(dnp)D-NH2, the cleaved bond entry in data set [3], in data set [4] and in data set [5] was “D-G” throughout.
On to ACC-GDEVE/XKK(dnp)G-NH2 [DEVE/A], for which the cleaved bond entry in data set [6] is given as “E-A”; in [7], “E-A”; in data set [8], “E-Ala”.
As for ACC-GDEVE/XKK(dnp)G-NH2 [DEVE/G], the results for the cleaved bond result in [6], in data set [7] and in data set [8] were “E-G”, “E-G” and “E-Gly”, respectively.
With ACC-GGLS(P1)*IVK(DNP)G-NH2, the not cleaved result in data set [9] is recorded as “No measurable hydrolysis”.
Take “ACC-GGLS(P1)*IVK(DNP)G-NH2 [ACC-GGLS(P1)*IVK(DNP)G-NH2, P1 = Arginine]”: in data set [9], the cleaved bond result was “Arginine-I”.
In the case of “ACC-GGLS(P1)*IVK(DNP)G-NH2 [ACC-GGLS(P1)*IVK(DNP)G-NH2, P1 = Citrulline]”, the cleaved bond result in data set [9] is “Citrulline-I”.
“ACC-GGLS(P1)*IVK(DNP)G-NH2 [ACC-GGLS(P1)*IVK(DNP)G-NH2, P1 = Lysine]”: in [9], the cleaved bond result is “Lysine-I”.
“ACC-GGLS(P1)*IVK(DNP)G-NH2 [ACC-GGLS(P1)*IVK(DNP)G-NH2, P1 = Ornithine]”: the cleaved bond result in data set [9] is “Ornithine-I”.
ACC-GPLG*LK(dnp)AR-NH2: the cleaved bond result in data set [10] and in data set [11] was “G-L” throughout.
As for ACC-GPTN*KVK(dnp)R-NH2, the cleaved bond entry in data set [12] is “N-K”.
For the compound MCA-GAEPV*SLK(dnp)L-NH2, the cleaved bond result in data set [2] is “V-S”.
In the case of MCA-GDEVD*GVK(dnp)D-NH2, the cleaved bond result in data set [3], in data set [4] and in [5] was “D-G” throughout.
Broadly, the Km is the concentration of substrate that gives half-maximal velocity. A word on the kcat: it is the maximal rate divided by the concentration of active sites. Take “MCA-GDEVD*GVK(dnp)D-NH2 [MCA/Lys(DNP) internally quenched fluorescent substrate for caspases]”: in data set [13], the Km is 11.7 µM, the kcat worked out at 0.32 s⁻¹ and the kcat/KM is on record as 26 300 M^−1s^−1. In addition, in [14], the Michaelis-Menten constant (Km) stood at 6.17 µM, the kcat amounted to 0.68 s⁻¹ and the kcat/KM is 106 000 M^−1s^−1. Also, in data set [15], the Km stood at 4.67 µM, the turnover number (kcat) worked out at 11.24 s⁻¹ and the kcat/KM is given as 2 359 000 M^−1s^−1.
Turning to MCA-GPLG*LK(dnp)AR-NH2, the cleaved bond entry in data set [10] and in data set [11] was “G-L” in each case.
MCA-GPTN*KVK(dnp)R-NH2: the cleaved bond entry in data set [12] is given as “N-K”.

These data come from publication PMC5322338 (Scientific Reports, 2017).
